pEC50: −log10 of the molar value. Several values for one entry are separate records, joined by “and”; a condition that tells them apart may be missing. Equal entries are not always repeated.
Columns and labels:
TRPM8 = system: TRPM8; set-up: method as in Journigan et al., 2020; details: 30 mg·kg−1, s.c.; ref Journigan et al., 2020; cited from earlier work
human TRPA1 = biological target: T1, human TRPA1 (Homo sapiens, UniProt O75762); assay: FlexStation Ca2+ flux assay in HEK293T cells transfected with human TRPA1; format: cell-based
T1 construct: expressed in transfected cells; host or cells: HEK293T
Procedure: (§1) The human embryonic kidney cell line (HEK293T, CRL-1573, RRID: CVCL_0045) was purchased from the American Type Culture Collection (Manassas, USA) and was maintained in Dulbecco’s Minimal Essential Medium (DMEM, Cellgro10013CV, Corning, Tewksbury, USA) that was supplemented with 10% fetal bovine serum (Gemini Bio-products), 2-mM L-glutamine (Invitrogen) and 100 U/mL penicillin and streptomycin (Invitrogen) and cultured in an incubator at 37°C, 5% CO2 and 95% humidity. Human TRPV1 and TRPA1 plasmid DNA (gift from D. Julius) were transiently bulk transfected individually into HEK293T cells using the FuGene HD transfection reagent (TFR, Promega, Madison, WI, USA) at a 3:1 ratio (TFR:DNA). Transfected cells were seeded at 10,000 cells per well in a volume of 25 μl into black walled collagen coated 384-well microtiter plates and cultured in an incubator at 37°C, 5% CO2 and 95% humidity for 48 h prior to the initiation of calcium mobilization experiments performed on a FlexStation 3 (Molecular Devices, Sunnyvale, CA, USA) platform equipped with a 16-channel robotic pipettor head and FLIPR tetra pipette tips. At 46 h post transfection, cell monolayers were preloaded with 25 μl of the FLIPR Calcium 6 dye (Molecular Devices) for 2 h in an incubator at 37°C, 5% CO2 and 95% humidity according to the manufacturer’s instructions. The plate was transferred to a FlexStation 3 microplate reader. Relative fluorescence units (RFUs) (Ex. 485 nm, Em 525 nm) were then acquired at 37°C in the kinetic mode. The run time for the agonist (1st) and antagonist (2nd) reads were 60 s each, for a total run time of 120 s, with an interval of 3.1 s between reads in the same well to allow all 16 wells in a column to be read sequentially, and the photomultiplier tube (PMT) level was set at medium, with 6 flashes per read. Baseline Fluo-6 RFUs were acquired for 18 s prior to the addition of compound in both the agonist and antagonist reads. For the first addition agonist read, the volume in the well was 50 μl, the pipette height was set at 40 μl, and 12.5 μl of the test compound was delivered at a speed of 2 μl·s^−1 after the baseline RFU’s acquisition period at 19 s, and the RFUs were acquired for an additional 41 s. For the second addition antagonist read, the volume in the well was 62.5 μl, the pipette height was set at 40 μl, and 12.5 μl of an EC80 agonist concentration was delivered at a speed of 2 μl/s after the baseline RFU’s acquisition period at 19 s, and the RFUs were acquired for an additional 41 s. The FlexStation 3 instrument settings, automated pipetting and data collection were all controlled by the SoftMax Pro software, version 7.1.2.
To analyse the agonist and antagonist Ca^2+ mobilization Fluo-6 RFU’s kinetic data, the RFU’s readings acquired throughout the 60-s acquisition period for each individual well were divided by the average RFU values acquired during the first 18-s baseline acquisition period from the same well to calculate a fold over baseline (FOB) ratio.

[1] = system: 78 recombinant human targets; assay: SAFETYscan E/IC50 ELECT panel of 78 assays; details: 10 concentrations, 0.005 to 100 μM; single experiment
Procedure: Assessment of the safety profile of VBJ103 across 78 assays using recombinant human targets was performed with the SAFETYscan E/IC50 ELECT service by Eurofins DiscoverX (San Diego, CA, USA). Data represent a single experiment and therefore should be considered preliminary. The assays were performed utilizing PathHunter enzyme fragment complementation (EFC) technology, FLIPR®-based cellular screening assays, KINOMEscan kinase binding assays and a variety of enzymatic assays. Further potential functional activity at opioid receptors was performed in the gpcrSCAN service by Eurofins DiscoverX. Hit Hunter® cAMP assays were carried out using Enzyme Fragment Complementation (EFC) with β-galactosidase (β-Gal) as the functional reporter.

human TRPV1 = biological target: T2, human TRPV1 (Homo sapiens, UniProt Q8NER1); assay: FlexStation Ca2+ flux assay in HEK293T cells transfected with human TRPV1; format: cell-based
T2 construct: expressed in transfected cells; host or cells: HEK293T
Procedure: as §1, with “Transfected cells were seeded at 10,000 cells per well in a volume of 25 μl into black walled collagen coated 384-well microtiter plates and cultured in an incubator at 37°C, 5% CO2 and 95% humidity for 48 h prior to the initiation of calcium mobilization experiments performed on a FlexStation 3 (Molecular Devices, Sunnyvale, CA, USA) platform equipped with a 16-channel robotic pipettor head and FLIPR tetra pipette tips. At 46 h post transfection, cell monolayers were preloaded with 25 μl of the FLIPR Calcium 6 dye (Molecular Devices) for 2 h in an incubator at 37°C, 5% CO2 and 95% humidity according to the manufacturer’s instructions.” left out, “The FlexStation 3 instrument settings, automated pipetting and data collection were all controlled by the SoftMax Pro software, version 7.1.2.” left out

T1 sequence (O75762 whole entry): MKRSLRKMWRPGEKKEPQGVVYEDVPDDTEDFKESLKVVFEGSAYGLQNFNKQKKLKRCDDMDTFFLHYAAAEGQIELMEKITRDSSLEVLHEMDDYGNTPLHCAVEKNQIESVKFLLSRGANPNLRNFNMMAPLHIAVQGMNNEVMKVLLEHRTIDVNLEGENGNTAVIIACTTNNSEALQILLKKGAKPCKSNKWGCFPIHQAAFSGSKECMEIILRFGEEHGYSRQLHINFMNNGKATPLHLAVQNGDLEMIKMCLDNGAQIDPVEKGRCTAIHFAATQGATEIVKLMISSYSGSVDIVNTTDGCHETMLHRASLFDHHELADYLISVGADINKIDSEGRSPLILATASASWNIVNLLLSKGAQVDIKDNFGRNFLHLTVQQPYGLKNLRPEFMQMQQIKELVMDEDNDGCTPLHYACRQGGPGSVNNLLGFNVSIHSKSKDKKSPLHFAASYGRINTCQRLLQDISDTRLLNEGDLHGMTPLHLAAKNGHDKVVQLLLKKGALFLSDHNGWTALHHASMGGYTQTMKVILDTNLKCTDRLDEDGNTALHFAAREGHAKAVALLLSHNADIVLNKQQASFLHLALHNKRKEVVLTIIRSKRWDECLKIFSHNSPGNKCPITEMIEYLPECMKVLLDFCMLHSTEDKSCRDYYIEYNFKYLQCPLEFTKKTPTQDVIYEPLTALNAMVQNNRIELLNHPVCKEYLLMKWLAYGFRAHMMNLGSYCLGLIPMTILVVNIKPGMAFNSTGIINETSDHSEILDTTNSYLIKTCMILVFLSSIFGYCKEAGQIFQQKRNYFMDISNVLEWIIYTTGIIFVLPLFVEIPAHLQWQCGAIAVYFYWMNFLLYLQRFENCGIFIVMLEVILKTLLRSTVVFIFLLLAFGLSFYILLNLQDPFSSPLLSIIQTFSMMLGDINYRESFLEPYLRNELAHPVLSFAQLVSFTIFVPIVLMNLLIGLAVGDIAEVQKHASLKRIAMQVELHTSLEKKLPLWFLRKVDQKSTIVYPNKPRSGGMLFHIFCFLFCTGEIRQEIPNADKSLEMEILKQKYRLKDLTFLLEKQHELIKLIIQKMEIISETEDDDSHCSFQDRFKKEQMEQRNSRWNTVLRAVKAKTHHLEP
T2 sequence (Q8NER1 whole entry): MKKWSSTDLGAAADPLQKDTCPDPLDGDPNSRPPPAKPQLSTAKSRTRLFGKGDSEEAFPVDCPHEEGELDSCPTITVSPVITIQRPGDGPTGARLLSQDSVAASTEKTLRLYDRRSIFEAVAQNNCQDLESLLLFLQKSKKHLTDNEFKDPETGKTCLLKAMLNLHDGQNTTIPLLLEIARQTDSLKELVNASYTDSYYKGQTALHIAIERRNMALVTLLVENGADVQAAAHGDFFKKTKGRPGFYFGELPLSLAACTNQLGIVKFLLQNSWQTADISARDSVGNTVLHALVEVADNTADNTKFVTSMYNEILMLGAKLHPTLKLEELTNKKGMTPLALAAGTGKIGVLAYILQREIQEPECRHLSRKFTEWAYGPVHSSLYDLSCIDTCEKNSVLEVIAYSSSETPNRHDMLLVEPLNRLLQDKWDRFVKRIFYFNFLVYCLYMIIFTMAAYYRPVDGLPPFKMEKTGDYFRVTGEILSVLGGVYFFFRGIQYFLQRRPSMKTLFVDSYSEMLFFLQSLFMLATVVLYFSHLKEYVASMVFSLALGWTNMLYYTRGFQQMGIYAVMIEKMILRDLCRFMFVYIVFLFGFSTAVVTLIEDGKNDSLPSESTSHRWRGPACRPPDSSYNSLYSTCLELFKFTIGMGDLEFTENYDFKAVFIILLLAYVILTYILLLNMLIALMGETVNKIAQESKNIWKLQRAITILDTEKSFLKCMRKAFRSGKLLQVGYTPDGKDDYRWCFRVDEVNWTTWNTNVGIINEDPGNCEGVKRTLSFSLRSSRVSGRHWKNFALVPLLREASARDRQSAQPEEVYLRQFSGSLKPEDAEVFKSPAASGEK

Compound: O=C(NC1CCC2(CCCC2)CC1)c1ccc(-c2ccccc2)cc1 [VBJ103, N-(Spiro[4.5]decan-8-yl)-[1,1′-biphenyl]-4-carboxamide]
- icilin-induced wet dog shaking (WDS) behaviour (TRPM8): suppresses
- pEC50 (human TRPA1; Figure 1g experiment, without HC-030031): 6.02
- antagonist activity at TRPA1 (human TRPA1; against an EC80 concentration (10 μM) of AITC): no detectable antagonist activity
- pEC50 (human TRPA1; agonist read): 5.98 and < 6.00
- shift in TRPA1 EC50 (human TRPA1; with versus without HC-030031 (10 μM)): 3.2 fold
- effects across the safety panel [1]: only dose-dependent effect detected
- agonist activity at TRPV1 (human TRPV1; compound alone): no apparent agonist activity
- inhibition of the Ca2+ signal at TRPV1 (human TRPV1; evoked with an EC80 concentration (0.1 μM) of capsaicin): Nor was there a detectable inhibition
